Laboratory results: article PMC6753678, “Fueling Open Innovation for Malaria Transmission-Blocking Drugs: Hundreds of Molecules Targeting Early Parasite Mosquito Stages” (Frontiers in Microbiology, 2019)
Like-named read-outs stand apart in the source and are kept apart here.

Legend:
[1] = system: P. berghei ookinete development; conditions: for % inhibition, Replicate A / % inhibition, Replicate B: primary screen at 1 μM
HepG2 cells = experiment: HepG2 cytotoxicity assay; conditions: for IC50: read-out: HepG2 cytotoxicity assay IC50, dose response confirmation; for Pb ODA (this manuscript) HepG2 cytoxicity: HepG2 cytotoxicity listed with the Pb ODA data set (this manuscript)
Summary of the method: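 Percent inhibition derived from fluorescent viability readout, normalised to DMSO (negative) and 50 μM doxorubicin (positive). Compound incubation lasted 48 h at 37°C, 5% CO2, with 2,500 HepG2 cells/well in MEM plus 10% FBS and 1% NEAA.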

[2] = system: 3D7-strain P. falciparum asexual parasites; experiment: P. falciparum asexual growth inhibition assay (Pf GIA); assay type: cell-based, Plasmodium falciparum; conditions: dose response confirmation; read-out: Pf asexual growth inhibition assays IC50
Summary of the method: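 Parasites at 0.25% parasitemia, 2% hematocrit in Albumax-supplemented RPMI were exposed to compounds in dose response for 72 h at 37°C under 5% CO2/5% O2. Viability was read as LDH activity (NBT/diaphorase, A650 after freeze-thaw). Percent inhibition was calculated against chloroquine and DMSO controls, mean of three biological replicates.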

[3] = read-out: Pb ODA IC50, this manuscript
[4] = read-out: Pb Ookinete development assay IC50, dose response confirmation
[5] = unified HepG2 value across the three screens
[6] = read-out: Pb ODA (this manuscript) IC50, P. berghei ookinete development assay, this manuscript
[7] = HepG2 values of the three screens unified

Row | SMILES | Is compound selective in assay? Pb ODA active? ([1]; 1: YES, 0: NO) | % inhibition, Replicate A [1] [%] | % inhibition, Replicate B [1] [%] | IC50 [1, 3] [nM] | IC50 [1, 4] [nM] | IC50 (HepG2 cells) [nM] | Unified cytotox (HepG2 cells; [5]) [µM] | IC50 [2] [nM] | Is compound selective in assay? Pb ODA active? [1] | IC50 [1, 6] [nM] | Pb ODA (this manuscript) HepG2 cytoxicity (HepG2 cells) [µM] | HepG2 cytoxicity (Pb ODA, this manuscript) (HepG2 cells) [µM] | Unified cytotox (HepG2 cells; [7]) [µM]
1 | Cc1nc2c(c([O-])c1Cl)-c1ccc(Oc3cccc(C(F)(F)F)c3)cc1C2=O.[Na+] [TCMDC-136021] | 1 (1: YES) | 94.15 | 74.80 | 780 | 785 | 39800 | 39.81 | 54 | – | – | – | – | –
2 | Cc1noc(C)c1-c1ccc2c(Nc3ccc(C#N)cc3)c(C(N)=O)cnc2c1 [TCMDC-136029] | – | 61.24 | 98.78 | – | 3830 | 69200 | – | 609 | 1 (key: 1: YES; 0: NO) | 3830 | 69.18 | – | –
3 | Cc1[nH]c(C)c(-c2ccc(CCc3ccc(C(F)(F)F)cc3)nc2)c(=O)c1Cl [TCMDC-136051] | 1 (1: YES) | 100.56 | 100.86 | 140 | 144 | 56900 | – | 52 | – | – | – | 56.89 | 56.89
4 | CC(=O)c1ccc(Nc2c(C(N)=O)cnc3cc(-c4c(C)noc4C)ccc23)cc1 [TCMDC-136058] | – | 86.92 | 80.92 | – | 3200 | 100000 | – | 1350 | 1 (key: 1: YES; 0: NO) | 3200 | 100.00 | – | –
5 | Cc1[nH]c(C)c(-c2ccc(-c3ccc(OC(F)(F)F)cc3)cc2)c(=O)c1Cl [TCMDC-136060] | 1 (1: YES) | 87.72 | 84.45 | 53.8 | 54 | 64600 | – | 77 | – | – | – | 64.57 | 64.57
6 | COc1ccc(Oc2ccc(-c3c(C)[nH]c(C)c(Cl)c3=O)cc2)cc1 [TCMDC-136134] | 1 (1: YES) | 121.16 | 100.57 | 420 | 422 | 100000 | – | 7.4 | – | – | – | – | 100.00
7 | Cc1[nH]c(C)c(-c2ccc(-c3ccccc3Cl)nc2)c(=O)c1Br [TCMDC-136157] | 0 (0: NO) | 96.17 | 90.55 | 430 | 432 | 140 | – | 48 | – | – | – | 0.14 | 0.14
8 | Cc1[nH]c(C)c(-c2ccc(-c3ccc(Cl)cc3)nc2)c(=O)c1Br [TCMDC-136159] | 1 (1: YES) | 98.54 | 60.48 | – | 940 | 100000 | – | 625 | – | – | – | – | 100.00
9 | Cc1[nH]c(C)c(-c2ccc(-c3cccc(Cl)c3)nc2)c(=O)c1Br [TCMDC-136160] | 1 (1: YES) | 97.52 | 67.64 | 2090 | 2090 | 100000 | – | 251 | – | – | – | – | 100.00
10 | Cc1[nH]c(C)c(-c2ccc(-c3ccc4c(c3)OCO4)nc2)c(=O)c1Br [TCMDC-136161] | 1 (1: YES) | 101.58 | 91.12 | 1430 | 1430 | 100000 | – | 646 | – | – | – | – | 100.00
11 | CCCCN(C)CC#Cc1ccc2[nH]c(C)c(Cl)c(=O)c2c1 [TCMDC-136185] | 1 (1: YES) | 106.94 | 101.22 | 210 | 207 | 3090 | 3.09 | 49 | – | – | – | – | –
12 | Cc1[nH]c2ccc(-c3ccc(N(C)C)cc3)cc2c(=O)c1Cl [TCMDC-136188] | 1 (1: YES) | 79.29 | 60.77 | 550 | 547 | 100000 | 100.00 | 227 | – | – | – | – | –
13 | Cc1[nH]cc(Br)c(=O)c1-c1ccc(Oc2ccccc2)cc1 [TCMDC-136196] | 1 (1: YES) | 91.11 | 82.53 | 370 | 369 | 100000 | – | 422 | – | – | – | – | 100.00
14 | COc1ccc2ncc(F)c(CCN3CC[C@H](NCc4cc(C#N)c5c(c4)OCCO5)[C@H](O)C3)c2c1 [TCMDC-136207] | 1 (1: YES) | 67.99 | 58.62 | 750 | 747 | 38000 | 38.02 | 795 | – | – | – | – | –
15 | COc1ccc2ncc(F)c(CCN3CCC(NCc4cc(C)c5c(c4)OCCO5)CC3)c2n1.Cl [TCMDC-136209] | – | 56.92 | 30.84 | – | 1740 | 21400 | – | 449 | 1 (key: 1: YES; 0: NO) | 1740 | 21.38 | – | –
16 | COc1ccc2ncc(F)c(CCN3CCC(NCc4cc(Br)c5c(c4)OCCO5)CC3)c2n1.Cl [TCMDC-136211] | – | 36.10 | 50.60 | – | 3400 | 14400 | – | 239 | 0 (key: 1: YES; 0: NO) | 3390 | 14.45 | – | –
17 | CCCCN(C)CC#Cc1ccc(-c2ccc3[nH]c(C)c(Br)c(=O)c3c2)cn1 [TCMDC-136285] | 1 (1: YES) | 73.89 | 66.49 | 1020 | 1020 | 100000 | 100.00 | 1060 | – | – | – | – | –
18 | Cc1[nH]c(C)c(-c2ccc(-c3cccc(OC(F)(F)F)c3)nc2)c(=O)c1Cl [TCMDC-136286] | 1 (1: YES) | 104.87 | 108.75 | 300 | 303 | 8510 | – | 258 | – | – | – | 8.51 | 8.51
19 | Cc1[nH]c(C)c(-c2ccc(-c3cccc(Cl)c3)nc2)c(=O)c1Cl [TCMDC-136300] | 1 (1: YES) | 90.77 | 81.67 | 680 | 675 | 56200 | – | 203 | – | – | – | 56.23 | 56.23
20 | Cc1[nH]c(C)c(-c2ccc(-c3ccc(Cl)cc3)nc2)c(=O)c1Cl [TCMDC-136301] | 1 (1: YES) | 94.15 | 37.57 | 960 | 963 | 100000 | – | 193 | – | – | – | – | 100.00
21 | Cc1[nH]c(C)c(-c2ccc(-c3ccccc3Cl)nc2)c(=O)c1Cl [TCMDC-136303] | 1 (1: YES) | 118.12 | 98.57 | 230 | 229 | 100000 | – | 248 | – | – | – | – | 100.00
22 | COc1ccc2ncc(F)c(NC(=O)C3CCC(NCc4cc5c(F)cccc5[nH]4)CC3)c2n1.Cl (stereo not drawn) [TCMDC-136354] | – | 86.49 | 82.69 | – | 252 | 3630 | – | 475 | 1 (key: 1: YES; 0: NO) | 250 | 3.63 | – | –
23 | COc1ccc2ncc(F)c(NC(=O)C3CCC(NCc4cc5cc(F)cc(F)c5[nH]4)CC3)c2n1.Cl (stereo not drawn) [TCMDC-136455] | – | 109.55 | 94.56 | – | 1020 | 15500 | – | 2430 | 1 (key: 1: YES; 0: NO) | 1020 | 15.49 | – | –
24 | CN1CCN(CC(=O)Nc2ccc(-c3ccc(-c4nc5ccccc5[nH]4)cc3)cc2)CC1 [TCMDC-136979] | 0 (0: NO) | 58.34 | 20.87 | 4190 | 4190 | 21600 | 21.63 | 1110 | – | – | – | – | –
25 | Cc1cc(=O)c2cc(-c3ccc(OC(F)(F)F)cc3)ccc2[nH]1 [TCMDC-137042] | 1 (1: YES) | 37.82 | 64.25 | 6380 | 6380 | 100000 | 100.00 | 2190 | – | – | – | – | –
